The subject of assay [1] is myosin regulatory light chain. The assay can be described thus: Action on amount of phosphorylated myosin regulatory light chain in the cells (Test Example 1). The format is cell-based, human. Conditions: neutrophils of healthy volunteers, reaction with test compound at 25°C for 5 minutes, read-out: Inhibition of myosin regulatory light chain phosphorylation (IC50: µM). The protocol:
The neutrophils were washed with PBS(-) and resuspended in Hanks' Balanced Salt Solution (HBSS+, Gibco) to prepare a cell suspension (8 x 10^6/ml). The cell suspension was diluted to 5 x 10^6/ml, introduced into Eppendorf tubes in a volume of 0.4 ml each, then 0.1 ml each of solutions of a test compound at various concentrations were added to the suspension and allowed to react at 25°C for 5 minutes. After the reaction, 0.1 ml of trichloroacetic acid solution was added to each reaction, the reaction mixture was gently shaken and centrifuged at 12,000 rpm (4°C, 5 minutes), and the supernatant was removed. Subsequently, 3 μl of 1 M Tris solution was added to the residue, the mixture was further mixed with 50 μl of extraction buffer (8 M urea, 0.02% 2-mercaptoethanol, 0.002% bromophenol blue) and left stand at room temperature for 1 hour. Then, the reaction mixture was loaded on a spin column (0.45 μm, Millipore) to remove the insoluble solids and a sample buffer for SDS polyacrylamide gel electrophoresis (25 mM, Tris-HCl pH 6.8, 2.5% 2-mercaptoethanol, 2% sodium dodecylsulfate, 5% sucrose, 0.002% bromophenol blue as final concentrations) was added, and 10 μl of each sample was subjected to electrophoresis. […] J. Physiol., 274, […]-[…] (1998)), which specifically recognize the phosphorylated myosin regulatory light chain, and donkey anti-mouse IgG (Chemicon) conjugated with horseradish peroxidase (HRP-labeled). The band of the phosphorylated myosin regulatory light chain was detected on a film by using ECL Plus Kit (Amersham Pharmacia Biotech). This band was subjected to quantification using a densitometer. By using this value, the inhibitory ratio (%) for phosphorylation of the myosin regulatory light chain was calculated by using the following equation.

The subject of the next assay is Neutrophils. Put plainly: Neutrophil migration inhibitory action, Boyden Chamber, FMLP (Test Example 5). The class given is cell-based, human. Particulars: FMLP (1 µM), migration at 37°C for 30 minutes, read-out: Neutrophil migration inhibition IC50. Here is the method: Neutrophils were isolated from 50 to 100 ml of peripheral blood collected from healthy donors by the method described in Test Example 1 to obtain a cell suspension (8 x 10^6/ml). Subsequently, solutions of a test compound at various concentrations were introduced into wells of a 96-well plate in a volume of 125 µl per well, the cell suspension of an equivalent volume was added to it and the plate was preincubated at room temperature for 5 minutes. During the preincubation, FMLP (1 µM, Sigma) solution was added to the lower chamber to set Boyden Chamber, the preincubated cell suspension was added to the upper chamber in a volume of 200 µl per well, and the cells were allowed to migrate at 37°C under 5% carbon dioxide for 30 minutes. The filter after the migration was collected, and the non-migrated cells adhered to the surface that faced the upper chamber were carefully wiped off. Then, the migrated cells on the back surface were stained with DifQuick dye solution (International Reagents), washed with water and dried, and then absorbance was measured at 595 nm. The inhibition ratio against migration (%) of a test compound was calculated by using the following equation: Migration inhibition ratio (%) = (1 -Absorbance of the group with addition of test compound /Absorbance of the group without addition of test compound) x 100 [formula]

In the next assay the test system is thoracic aorta. The assay can be described thus: Vasoconstriction inhibitory action on aorta rings constricted with phenylephrine (Test Example 2). Details: species or system Rats (Wistar, 11-week old). Particulars: for vasoconstriction inhibitory action: result in words, aorta constricted with phenylephrine (1 µM). The text has this: Rats (Wistar, 11-week old) were bleeded to death and laparotomized to take out the thoracic aorta.

Where [2] appears, read: Homo sapiens, Neutrophil, 5 min.
Where [3] appears, read: Homo sapiens, Neutrophil, 0.5 h.

Consider 28 compounds from patent publication EP1541559A1, “5-SUBSTITUTED ISOQUINOLINE DERIVATIVE” (Asahi Kasei Pharma Corporation, priority 2002, dated 2004).

pIC50: −log10 of the molar value. Structures can show the parent of a compound that is named as a salt. Where two headings read alike, the source gives them in different places.

Broadly, the IC50 is the concentration needed to halve the response being measured. “4-(4-Cyano-5-isoquinolyl)aminopiperidine hydrochloride [Example 143]”: the IC50 in assay [1] is at most 40 µM.
With `NCCCN(CCCCc1ccccc1)S(=O)(=O)c1cccc2cnccc12` [Example 4, N-[(5-Isoquinolyl)sulfonyl]-N-(4-phenylbutyl)-1,3-propylenediamine hydrochloride], in assay [1] (setting [2]), the IC50 was 30 µM. Moreover, the pIC50 with Neutrophils (setting [3]) was 5.00 to 6.00.
The corresponding values for `NCCCN(CCS(=O)(=O)c1ccccc1)S(=O)(=O)c1cccc2cnccc12` [Example 6, N-[(5-Isoquinolyl)sulfonyl]-N-[2-(phenylsulfonyl)ethyl]-1,3-propylenediamine hydrochloride] are 20 µM and 5.00 to 6.00.
The corresponding values for `NCCN(CCS(=O)(=O)c1ccccc1)S(=O)(=O)c1cccc2c(N)nccc12` [Example 9, N-[(1-Amino-5-isoquinolyl)sulfonyl]-N-[2-(phenylsulfonyl)ethyl]ethylenediamine hydrochloride] are 15 µM and 5.00 to 6.00.
For the compound `Cl.NCCCN(CCS(=O)(=O)c1ccccc1)S(=O)(=O)c1cccc2c(O)nccc12` [Example 13, N-[(1-Hydroxy-5-isoquinolyl)sulfonyl]-N-[2-(phenylsulfonyl)ethyl]-1,3-propylenediamine hydrochloride], in the assay on thoracic aorta, the vasoconstriction inhibitory action result is “significant vasoconstriction inhibitory action”. The IC50 in assay [1] (setting [2]) amounted to 20 µM. In addition, the pIC50 in the assay with Neutrophils (setting [3]) was 5.00 to 6.00.
For `NCCCN(CCCc1ccccc1)S(=O)(=O)c1cccc2c(O)nccc12` [Example 14, N-[(1-Hydroxy-5-isoquinolyl)sulfonyl]-N-(3-phenylpropyl)-1,3-propylenediamine hydrochloride], the IC50 in assay [1] (setting [2]) lay in the range of 20 to 40 µM. In the assay on Neutrophils (setting [3]), the pIC50 was 5.00 to 6.00.
Regarding `NCCCNc1cccc2cnccc12` [Example 16, N-(5-Isoquinolyl)-1,3-propylenediamine hydrochloride], in assay [1] (setting [2]), the IC50 is 20 to 40 µM. Besides, the pIC50 in the assay with Neutrophils (setting [3]) was 4.40 to 5.00.
Take `NCCCCNc1cccc2cnccc12` [Example 18, N-(5-Isoquinolyl)-1,4-butylenediamine hydrochloride]: the IC50 in assay [1] (setting [2]) was in the range of 20 to 40 µM. Moreover, in the assay on Neutrophils (setting [3]), the pIC50 is 4.40 to 5.00.
For the compound `c1cc(NCC2CCNCC2)c2ccncc2c1` [Example 21, 4-(5-Isoquinolyl)aminomethylpiperidine hydrochloride], the IC50 is at most 40 µM in assay [1] (setting [2]) and at most 20 µM in assay [1] (hydrochloride). In addition, the pIC50 in the assay with Neutrophils (setting [3]) was 4.40 to 5.00.
Consider `c1cc(NCC2CCCNC2)c2ccncc2c1` (centres unmarked) [Example 22, 3-(5-Isoquinolyl)aminomethylpiperidine hydrochloride], for which the IC50 in assay [1] (setting [2]) was at most 40 µM.
Regarding `N[C@H]1CC[C@@H](Nc2cccc3cnccc23)CC1` [Example 23, Cis-N-(5-Isoquinolyl)-1,4-cyclohexanediamine hydrochloride], the IC50 in assay [1] (setting [2]) lay in the range of 1 to 20 µM. Moreover, the pIC50 with Neutrophils (setting [3]) is 5.00 to 6.00.
On to `N[C@H]1CC[C@H](Nc2cccc3cnccc23)CC1` [Example 24, Trans-N-(5-isoquinolyl)-1,4-cyclohexanediamine hydrochloride], for which, in assay [1] (setting [2]), the IC50 was in the range of 1 to 20 µM. Besides, in the assay on Neutrophils (setting [3]), the pIC50 was 5.00 to 6.00.
Take `NC1CCCC(Nc2cccc3cnccc23)C1` (centres unmarked) [Example 25, N-(5-Isoquinolyl)-1,3-cyclohexanediamine hydrochloride]: in assay [1] (setting [2]), the IC50 lay within 20 to 40 µM. Moreover, in the assay with Neutrophils (setting [3]), the pIC50 is 4.40 to 5.00.
Take `NCc1cccc(CNc2cccc3cnccc23)c1` [Example 26, N-(5-Isoquinolyl)-1,3-xylylenediamine hydrochloride]: the IC50 in assay [1] (setting [2]) was 20 to 40 µM. In the assay on Neutrophils (setting [3]), the pIC50 was 4.40 to 5.00.
The corresponding values for `c1cc(OC2CCNCC2)c2ccncc2c1` [Example 27, 4-[(5-Isoquinolyl)oxy]piperidine hydrochloride] are 1 to 20 µM and at least 4.40.
Regarding `NCCN(CCCc1ccccc1)S(=O)(=O)c1cccc2cnccc12` [Example 30, N-[(5-isoquinolyl)sulfonyl]-N-(3-phenylpropyl)ethylenediamine], the IC50 in assay [1] (setting [2]) lay in the range of 20 to 40 µM. Besides, the pIC50 with Neutrophils (setting [3]) was 5.00 to 6.00.
With `Fc1cncc2cccc(NC3CCNCC3)c12` [Example 104, 4-(4-Fluoro-5-isoquinolyl)aminopiperidine hydrochloride], the IC50 in assay [1] (setting [2]) is at most 40 µM; in assay [1] (hydrochloride), at most 20 µM. In addition, the pIC50 with Neutrophils (setting [3]) is at least 4.40.
For `CSc1cncc2cccc(NC3CCNCC3)c12.Cl` [Example 105, 4-(4-Methylthio-5-isoquinolyl)aminopiperidine hydrochloride], the vasoconstriction inhibitory action result in the assay with thoracic aorta was “significant vasoconstriction inhibitory action”. The IC50 in assay [1] (setting [2]) was at most 40 µM.
Turning to `C=Cc1cncc2cccc(NC3CCNCC3)c12.Cl` [Example 112, 4-(4-Vinyl-5-isoquinolyl)aminopiperidine hydrochloride], the vasoconstriction inhibitory action result with thoracic aorta is reported as “significant vasoconstriction inhibitory action”. Moreover, the IC50 was at most 40 µM in assay [1] (setting [2]) and at most 20 µM in assay [1] (hydrochloride). Further, in the assay on Neutrophils (setting [3]), the pIC50 was at least 4.40.
Turning to `NCCCN(CCCc1cccc(C(=O)O)c1)S(=O)(=O)c1cccc2cnccc12` [Example 128, N-[(5-Isoquinolyl)sulfonyl]-N-[3-(3-carboxy)phenylpropyl]-1,3-propylenediamine hydrochloride], the IC50 in assay [1] (hydrochloride) is at most 20 µM. Moreover, in the assay on Neutrophils, the pIC50 is at least 4.40.
On to `COC(=O)c1ccc(CCCN(CCCN)S(=O)(=O)c2cccc3cnccc23)cc1` [Example 130, N-[(5-Isoquinolyl)sulfonyl]-N-[3-(4-methoxycarbonyl)phenylpropyl]-1,3-propylenediamine hydrochloride], for which, in assay [1] (hydrochloride), the IC50 was at most 20 µM.
Consider `COC(=O)c1cccc(CCCN(CCCN)S(=O)(=O)c2cccc3cnccc23)c1` [Example 131, N-[(5-Isoquinolyl)sulfonyl]-N-[3-(3-methoxycarbonyl)phenylpropyl]-1,3-propylenediamine hydrochloride], for which the IC50 in assay [1] (hydrochloride) is at most 20 µM. Also, in the assay with Neutrophils, the pIC50 is at least 4.40.
For the compound `Nc1cncc2cccc(O[C@H]3CC[C@H](N)CC3)c12` [Example 137, Trans-4-[(4-amino-5-isoquinolyl)oxy]cyclohexylamine hydrochloride], the IC50 is at most 40 µM in assay [1] (setting [2]) and at most 20 µM in assay [1] (hydrochloride). Also, the pIC50 with Neutrophils (setting [3]) is at least 4.40.
For the compound `CCc1cncc2cccc(O[C@H]3CC[C@H](N)CC3)c12` [Example 138, Trans-4-[(4-ethyl-5-isoquinolyl)oxy]cyclohexylamine hydrochloride], the values for the IC50 in assay [1] (setting [2]) and in assay [1] (hydrochloride) were at most 40 µM and at most 20 µM, respectively.
For `Nc1nccc2c(NC3CCNCC3)cccc12` [Example 142, 4-(1-Amino-5-isoquinolyl)aminopiperidine hydrochloride], the IC50 is at most 40 µM in assay [1] (setting [2]) and at most 20 µM in assay [1] (hydrochloride).
Take `N#Cc1cncc2cccc(O[C@H]3CC[C@H](NCCO)CC3)c12` [Example 156, Trans-1-[(4-cyano-5-isoquinolyl)oxy]-4-[(2-hydroxyethyl)amino]cyclohexane hydrochloride]: the results for the IC50 in assay [1] (setting [2]) and in assay [1] (hydrochloride) were at most 40 µM and at most 20 µM, respectively.
On to `Cc1cnc(O)c2cccc(N[C@H]3CC[C@H](N)CC3)c12` [Example 160, Trans-N-(1-hydroxy-4-methyl-5-isoquinolyl)-1,4-cyclohexanediamine hydrochloride], for which the concentration for half-maximal inhibition (IC50) in assay [1] (setting [2]) is at most 40 µM; in assay [1] (hydrochloride), at most 20 µM. In addition, the pIC50 in the assay with Neutrophils (setting [3]) is at least 4.40.
Turning to `CC1CNCCN1S(=O)(=O)c1cccc2cnccc12` (centres unmarked) [Example H-7, 1-(5-isoquinolinesulfonyl)-2-methylpiperazine, reference compound], the inhibition at 1 µM in the assay on thoracic aorta (Rattus norvegicus, read-out: Vasoconstriction inhibitory action (relaxation ratio) (%)) was 22%.
